Experimental data: paper PMC9481312, “In Vitro α-Glycosidase Inhibition and In Silico Studies of Flavonoids Isolated from Pistacia integerrima Stew ex Brandis” (BioMed Research International, 2022)

Biological target: T1, α-glycosidase (intestinal α-glycosidase; α-glucosidase)
T1 construct: gene Si; crude native extract: supernatant of sonicated rat intestinal acetone powder in saline (100:1 w/v); not purified, isoenzyme not identified
Assay: colorimetric p-nitrophenyl release, 96-well plate
Format: biochemical
Details: 5 mM p-nitrophenyl-α-D-glucopyranoside, 100 mM phosphate, pH 6.8, DMSO, 5 min preincubation; crude rat intestinal extract
Text: colorimetric p-nitrophenyl release, 96-well plate on α-glycosidase (intestinal α-glycosidase; α-glucosidase)

SMILES: C[C@H]1O[C@H](O[C@H]2[C@H](O)[C@@H](O)[C@@H](O[C@H]3[C@H](O)[C@@H](O)C(O)O[C@@H]3CO)O[C@@H]2CO)[C@H](O)[C@@H](O)[C@@H]1N[C@H]1C=C(CO)[C@@H](O)[C@H](O)[C@H]1O (stereo partly shown) [acarbose, reference compound]
- IC50: 841 ± 1.34 µM

SMILES: O=C1c2c(O)cc(O)cc2O[C@H](c2ccc(O)cc2)[C@H]1O [compound 1, 3,5,7,4′-tetrahydroxy-flavanone]
- IC50: 183.2 ± 1.22 µM

SMILES: O=C1C[C@@H](c2ccc(O)cc2)Oc2cc(O)cc(O)c21 [compound 2, naringenin]
- IC50: 754.2 ± 1.76 µM

SMILES: COc1cc(O)c2c(c1)OC(c1ccc(O)cc1)C(O)C2=O (stereo not shown) [compound 3, 3,5,4′-trihydroxy,7-methoxy-flavanone]
- IC50: 790 ± 2.31 µM

SMILES: COc1cc(O)c2c(c1)O[C@H](c1ccc(O)cc1)CC2=O [compound 4, sakuranetin]
- IC50: 287.3 ± 2.09 µM

SMILES: COc1cc(-c2oc3cc(O)c(OC)c(O)c3c(=O)c2O)ccc1O [compound 5, spinacetin]
- IC50: 826.4 ± 1.87 µM

SMILES: COc1c(O)cc2oc(-c3ccc(O)c(O)c3)c(O)c(=O)c2c1O [compound 6, patuletin]
- IC50: 743.1 ± 1.32 µM
